From PubChem BioAssay AID1259411 (Chemical Carcinogenesis Research Information System (CCRIS), 2018)
The source made the active and inactive calls. The rule behind the calls is not given here.

Test system: rodent carcinogenicity bioassays, tumor incidence
Test: CCRIS carcinogenicity studies
Method in brief: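 NCI-built, expert-reviewed records of carcinogenicity and related test outcomes (mutagenicity, tumor promotion/inhibition) compiled from published and report sources, historical span 1985-2011, not updated.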

Structure (SMILES): Nc1ccc(N=Nc2ccccc2)cc1
- carcinogen call (Species: MOUSE, Strain/Sex: B6C3F1/FEMALE, Route: INTRAPERITONEAL, Dose: 0, 0.3 UMOL/G IN TRIOCTANOIN ONCE ON DAY 1 FOLLOWED BY 0.4 UMOL/G ONCE ON DAY 8, 15 AND 22 (STUDY DURATION: UP TO 10 MO)): inactive; negative
- carcinogen call (Species: MOUSE, Strain/Sex: B6C3F1/MALE, Route: INTRAPERITONEAL, Dose: 0, 0.017, 0.05, 0.15, 0.45 UMOL/G ONCE IN TRIOCTANOIN (STUDY DURATION: 10 MO), Dose: 0, 0.017, 0.05, 0.15, 0.45 UMOL/G ONCE IN TRIOCTANOIN (STUDY DURATION: 10 MO), Tumor Site: Type of Lesion: LIVER: HEPATOMA): active; positive
- carcinogen call (Species: MOUSE, Strain/Sex: B6C3F1/MALE, Route: INTRAPERITONEAL, Dose: 0, 0.3 UMOL/G IN TRIOCTANOIN ONCE ON DAY 1 FOLLOWED BY 0.4 UMOL/G ONCE ON DAY 8, 15 AND 22 (STUDY DURATION: UP TO 10 MO), Tumor Site: Type of Lesion: LIVER: HEPATOMA): active; positive
- carcinogen call (Species: MOUSE, Strain/Sex: C3H/MALE, Route: INTRAPERITONEAL, Dose: 0, 0.45 UMOL/G ONCE IN TRIOCTANOIN (STUDY DURATION: 11 MO), Tumor Site: Type of Lesion: LIVER: HEPATOMA): active; positive
- carcinogen call (Species: MOUSE, Strain/Sex: C57BL/MALE, Route: INTRAPERITONEAL, Dose: 0, 0.45 UMOL ONCE IN TRIOCTANOIN (STUDY DURATION: 11 MO), Tumor Site: Type of Lesion: LIVER: HEPATOMA): active; positive
- carcinogen call (Species: RAT, Route: DERMAL, Tumor Site: Type of Lesion: INTEGUMENTARY SYSTEM (SKIN)): active; positive
- carcinogen call (Species: RAT, Route: ORAL, Tumor Site: Type of Lesion: LIVER): active; positive
- carcinogen call (Species: RAT, Strain/Sex: F344/MALE, Route: INTRAPERITONEAL, Dose: 0, 0.3 UMOL/G IN TRIOCTANOIN ONCE ON DAY 1 FOLLOWED BY 0.4 UMOL/G ONCE ON D 8, 15 AND 22 (STUDY DURATION: 24 MO)): inactive; negative

Structure (SMILES): CC(=O)O[C@]1(C(C)=O)CC[C@H]2[C@@H]3C=C(Cl)C4=CC(=O)CC[C@]4(C)[C@H]3CC[C@@]21C
- carcinogen call (Species: DOG, Route: ORAL, Tumor Site: Type of Lesion: MAMMARY GLAND): active; positive

Structure (SMILES): CC(O)COC(C)(C)C (configuration not stated)
- carcinogen call (Species: MOUSE, Strain/Sex: B6C3F1/FEMALE, Route: INHALATION, Dose: 0, 75, 300, 1200 PPM 6 HR/D, 5 D/WK FOR 104 WKS, Dose: 0, 75, 300, 1200 PPM 6 HR/D, 5 D/WK FOR 104 WKS, Tumor Site: Type of Lesion: LIVER: HEPATOCELLULAR ADENOMA, CARCINOMA OR HEPATOBLASTOMA): active; positive
- carcinogen call (Species: MOUSE, Strain/Sex: B6C3F1/MALE, Route: INHALATION, Dose: 0, 75, 300, 1200 PPM 6 HR/D, 5 D/WK FOR 104 WKS, Dose: 0, 75, 300, 1200 PPM 6 HR/D, 5 D/WK FOR 104 WKS, Tumor Site: Type of Lesion: LIVER: HEPATOCELLULAR ADENOMA, CARCINOMA OR HEPATOBLASTOMA): active; positive
- carcinogen call (Species: RAT, Strain/Sex: F344/N/FEMALE, Route: INHALATION, Dose: 0, 75, 300, 1200 PPM 6 HR/D, 5 D/WK FOR 104 WKS, Dose: 0, 75, 300, 1200 PPM 6 HR/D, 5 D/WK FOR 104 WKS): inactive; negative
- carcinogen call (Species: RAT, Strain/Sex: F344/N/MALE, Route: INHALATION, Dose: 0, 75, 300, 1200 PPM 6 HR/D, 5 D/WK FOR 104 WKS, Dose: 0, 75, 300, 1200 PPM 6 HR/D, 5 D/WK FOR 104 WKS, Tumor Site: Type of Lesion: NO STATISTICALLY SIGNIFICANT INCREASE IN TUMORS BUT KIDNEY TUBULE TUMORS INCREASED SLIGHTLY): equivocal

Structure (SMILES): [N-]=[N+]=[N-]
- carcinogen call (Species: RAT, Strain/Sex: F344/FEMALE, Route: GAVAGE, Dose: 0, 5, 10 MG/KG IN DISTILLED WATER 5 D/WK FOR 103 WK (STUDY DURATION: 2 YR), Dose: 0, 5, 10 MG/KG IN DISTILLED WATER 5 D/WK FOR 103 WK (STUDY DURATION: 2 YR)): inactive; negative
- carcinogen call (Species: RAT, Strain/Sex: F344/MALE, Route: GAVAGE, Dose: 0, 5, 10 MG/KG IN DISTILLED WATER 5 D/WK FOR 103 WK (STUDY DURATION: 2 YR), Dose: 0, 5, 10 MG/KG IN DISTILLED WATER 5 D/WK FOR 103 WK (STUDY DURATION: 2 YR)): inactive; negative

Structure (SMILES): CCN(CC)C(=S)S
- carcinogen call (Species: MOUSE, Strain/Sex: B6C3F1/FEMALE, Route: ORAL, Dose: 0, 500, 4000 PPM IN DIET, Dose: 0, 500, 4000 PPM IN DIET): inactive; negative
- carcinogen call (Species: MOUSE, Strain/Sex: B6C3F1/MALE, Route: ORAL, Dose: 0, 500, 4000 PPM IN DIET, Dose: 0, 500, 4000 PPM IN DIET): inactive; negative
- carcinogen call (Species: RAT, Strain/Sex: F344/FEMALE, Route: ORAL, Dose: 0, 1250, 2000 PPM IN DIET, Dose: 0, 1250, 2000 PPM IN DIET): inactive; negative
- carcinogen call (Species: RAT, Strain/Sex: F344/MALE, Route: ORAL, Dose: 0, 1250, 2000 PPM IN DIET, Dose: 0, 1250, 2000 PPM IN DIET): inactive; negative

Structure (SMILES): CCCCCN(N=O)C(=O)OCC
- carcinogen call (Species: RAT, Strain/Sex: DONRYU/FEMALE, Route: ORAL, Dose: 0, 100, 200, 400 PPM IN DRINKING WATER FOR 60 WK, Dose: 0, 100, 200, 400 PPM IN DRINKING WATER FOR 60 WK, Tumor Site: Type of Lesion: ORAL CAVITY: PAPILLOMA, CARCINOMA, ESOPHAGUS: PAPILLOMA, CARCINOMA, FORESTOMACH: PAPILLOMA, CARCINOMA, Tumor Site: Type of Lesion: ORAL CAVITY: PAPILLOMA, CARCINOMA, ESOPHAGUS: PAPILLOMA, CARCINOMA, FORESTOMACH: PAPILLOMA, CARCINOMA): active; positive

Structure (SMILES): Cn1cc(OCC(O)CNC(C)(C)C)c2ccccc2c1=O (configuration not stated)
- carcinogen call (Species: MOUSE, Strain/Sex: CD-1/FEMALE, Route: GAVAGE, Dose: 0, 3, 10, 30 MG/KG/D FOR 80 WK IN WATER (STUDY DURATION: 80 WK), Dose: 0, 3, 10, 30 MG/KG/D FOR 80 WK IN WATER (STUDY DURATION: 80 WK)): inactive; negative
- carcinogen call (Species: MOUSE, Strain/Sex: CD-1/MALE, Route: GAVAGE, Dose: 0, 3, 10, 30 MG/KG/D FOR 80 WK IN WATER (STUDY DURATION: 80 WK), Dose: 0, 3, 10, 30 MG/KG/D FOR 80 WK IN WATER (STUDY DURATION: 80 WK)): inactive; negative
